SMILES strings stand for the structures.

The target of experiment [1] is T1, BRAF (wild-type) (Homo sapiens, UniProt P15056).
T1 construct: purchased Reaction Biology Corp. (Kinase HotSpot service)
Put plainly: Reaction Biology kinase HotSpot enzyme assay. It counts as biochemical. Conditions: 1 µM ATP; mean ± S.D. of two separate experiments. Here is the method:
The enzymatic assays were performed in Reaction Biology Corp. using the standard protocol at 1 µM ATP and threefold dilution factor (detailed procedure is found in the Supplementary Information page 52 s).
Reaction Biology Corp. Kinase HotSpotTM service http://www.reactionbiology.com was used for screening of compounds IC50 Proﬁler Express for IC50 measurement. Assay protocol: In a ﬁnal reaction volume of 25 μL, kinase (5–10 mU) is incubated with 25 mM Tris pH 7.5, 0.02 mM EGTA, 0.66 mg/mL myelin basic protein, 10 mM magnesium acetate and [γ33P-ATP] (speciﬁc activity approx. 500 cpm/pmol, concentration as required). The reaction is initiated by the addition of the Mg-ATP mix. After incubation for 40 min at room temperature, the reaction is stopped by the addition of 5 μL of a 3% phosphoric acid solution. 10 μL of the reaction is then spotted onto a P30 ﬁltermat, and washed three times for 5 min in 75 mM phosphoric acid and once in methanol prior to drying and scintillation counting.

Experiment [2] concerns T-47D. Put plainly: NCI 60 cell line screen. It counts as cell-based, human. Conditions: for activity at 10 µM: Homo sapiens, T47D, Breast Cancer, read-out: Percent growth; for percent inhibition: NCI-60 heat map analysis. Here is the method: (§1) Anticancer profiling over a panel of 60 cancer cell lines was carried out at the National Cancer Institute (NCI), Bethesda, Maryland, USA, https://dtp.cancer.gov/discovery_development/nci-60/methodology.htm (Last visit 22 September 2021), using the standard procedure (detailed procedure is located in the Supplementary Information page 50 s).
(§2) NCI standard procedure for 60 cell lines assay
(§3) The human tumor cell lines of the cancer screening panel are grown in RPMI 1640 mediu m containing 5% fetal bovine serum and 2 mM L-glutamine. For a typical screening experiment, cells are inoculated into 96 well microtiter plates in 100 μL at plating densities ranging from 5,000 to 40,000 cells/well depending on the doubling time of individual cell lines. After cell inoculation, the microtiter plates are incubated at 37° C, 5 % CO2, 95 % air and 100 % relative humidity for 24 h prior to addition of experimental drugs.
(§4) After 24 h, two plates of each cell line are fixed in situ with TCA, to represent a measurement of the cell population for each cell line at the time of drug addition (Tz). Experimental drugs are solubilized in dimethyl sulfoxide at 400-fold the desired final maximum test concentration (10 µM) and stored frozen prior to use. At the time of drug addition, an aliquot of frozen concentrate is thawed and diluted to twice the desired final maximum test concentration with co mp lete medium containing 50 μg/ml gentamicin. Additional four, 10-fold or ½ log serial dilutions are made to provide a total of five drug concentrations plus control. Aliquots of 100 μl of these different drug dilutions are added to the appropriate microtiter wells already containing 100 μl of medium, resulting in the required final drug concentrations.
(§5) Following drug addition, the plates are incubated for an additional 48 h at 37°C, 5 % CO2, 95 % air, and 100 % relative humidity. For adherent cells, the assay is terminated by the addition of cold TCA. Cells are fixed in situ by the gentle addition of 50 μl of cold 50 % (w/v) TCA (final concentration, 10 % TCA) and incubated for 60 minutes at 4°C. The supernatant is discarded, and the plates are washed five times with tap water and air dried. Sulforhodamine B (SRB) solution (100 μl) at 0.4 % (w/v) in 1 % acetic acid is added to each well, and plates are incubated for 10 minutes at room temperature. After staining, unbound dye is removed by washing five times with 1 % acetic acid and the plates are air dried. Bound stain is subsequently solubilized with 10 mM trizma base, and the absorbance is read on an automated plate reader at a wavelength of 515 nm. For suspension cells, the methodology is the same except that the assay is terminated by fixing settled cells at the bottom of the wells by g ently adding 50 μl of 80 % TCA (final concentration, 16 % TCA). Using the seven absorbance measurements [time zero, (Tz), control growth, (C), and test growth in the presence of drug at the five concentration levels (Ti)], the percentage growth is calculated at each of the drug concentrations levels. Percentage growth inhibition is calculated as:
(§6) [(Ti-Tz)/(C-Tz)] x 100 for concentrations for which Ti>/=Tz
(§7) [(Ti-Tz)/Tz] x 100 for concentrations for which Ti<Tz.
(§8) Three dose response parameters are calculated for each experimental agent. Growth inhibition of […]
(§9) resulting in a 50% reduction in the net protein increase (as measured by SRB staining) in control cells during the drug incubation. The drug concentration resulting in total growth inhibition […]
(§10) (TGI) is calculated from Ti = Tz.

In experiment [3] the test system is NCI/ADR-RES. Put plainly: NCI 60 cell line screen. It counts as cell-based, human. Conditions: Homo sapiens, Ovarian Cancer, read-out: Percent growth. How it is done: as §1, §2, §3, §4, §5, §6, §7, §8, §9, §10
The test system of experiment [4] is RPMI-8226. Put plainly: NCI 60 cell line screen. As to conditions: Homo sapiens; RPMI-8226, Leukemia; read-out: Percent growth. It counts as cell-based, human. How it is done: as §1, §2, §3, §4, §5, §6, §7, §8, §9, §10
Experiment [5] relates to SNB-75. Kind of experiment: NCI 60 cell line screen. As to conditions: Homo sapiens; SNB-75, CNS-Cancer; read-out: Percent growth. In kind it is cell-based, human. Here is the method:
as §1, §2, §3, §4, §5, §6, §7, §8, §9, §10

In experiment [6] the test system is EKVX. Kind of experiment: NCI 60 cell line screen. It counts as cell-based, human. Conditions: Homo sapiens, Non-Small Cell Lung Cancer, read-out: Percent growth. How it is done:
as §1, §2, §3, §4, §5, §6, §7, §8, §9, §10

Experiment [7] deals with CAKI-1. Put plainly: NCI 60 cell line screen. It counts as cell-based, human. As to conditions: Homo sapiens; CAKI-1, Renal Cancer; read-out: Percent growth. How it is done: as §1, §2, §3, §4, §5, §6, §7, §8, §9, §10
Experiment [8] deals with MDA-MB-468. Put plainly: NCI 60 cell line screen. In kind it is cell-based, human. As to conditions: Homo sapiens; MDA-MB-468, Breast Cancer; read-out: Percent growth. How it is done:
as §1, §2, §3, §4, §5, §6, §7, §8, §9, §10

The subject of experiment [9] is HOP-92. Put plainly: NCI 60 cell line screen. As to conditions: Homo sapiens; HOP-92, Non-Small Cell Lung Cancer; read-out: Percent growth. In kind it is cell-based, human. Here is the method: as §1, §2, §3, §4, §5, §6, §7, §8, §9, §10
The subject of experiment [10] is UO-31. Kind of experiment: NCI 60 cell line screen. It counts as cell-based, human. As to conditions: Homo sapiens; UO-31, Renal Cancer; read-out: Percent growth. Here is the method:
as §1, §2, §3, §4, §5, §6, §7, §8, §9, §10

The subject of experiment [11] is PC-3. Kind of experiment: NCI 60 cell line screen. It counts as cell-based, human. As to conditions: Homo sapiens; PC-3, Prostate Cancer; read-out: Percent growth. How it is done: as §1, §2, §3, §4, §5, §6, §7, §8, §9, §10
The test system of experiment [12] is NCI-H226. Kind of experiment: NCI 60 cell line screen. In kind it is cell-based, human. Conditions: Homo sapiens; NCI-H226, Non-Small Cell Lung Cancer; read-out: Percent growth. Here is the method: as §1, §2, §3, §4, §5, §6, §7, §8, §9, §10
The test system of experiment [13] is OVCAR-4. Put plainly: NCI 60 cell line screen. In kind it is cell-based, human. As to conditions: Homo sapiens; OVCAR-4, Ovarian Cancer; read-out: Percent growth. Here is the method: as §1, §2, §3, §4, §5, §6, §7, §8, §9, §10
Experiment [14] deals with U251. Kind of experiment: NCI 60 cell line screen. It counts as cell-based, human. Conditions: Homo sapiens, U-251; U251, CNS-Cancer; read-out: Percent growth. How it is done: as §1, §2, §3, §4, §5, §6, §7, §8, §9, §10
Experiment [15] has as its system NCI-H522. Put plainly: NCI 60 cell line screen. Conditions: Homo sapiens; NCI-H522, Non-Small Cell Lung Cancer; read-out: Percent growth. It counts as cell-based, human. How it is done: as §1, §2, §3, §4, §5, §6, §7, §8, §9, §10

T1 sequence (P15056 whole entry): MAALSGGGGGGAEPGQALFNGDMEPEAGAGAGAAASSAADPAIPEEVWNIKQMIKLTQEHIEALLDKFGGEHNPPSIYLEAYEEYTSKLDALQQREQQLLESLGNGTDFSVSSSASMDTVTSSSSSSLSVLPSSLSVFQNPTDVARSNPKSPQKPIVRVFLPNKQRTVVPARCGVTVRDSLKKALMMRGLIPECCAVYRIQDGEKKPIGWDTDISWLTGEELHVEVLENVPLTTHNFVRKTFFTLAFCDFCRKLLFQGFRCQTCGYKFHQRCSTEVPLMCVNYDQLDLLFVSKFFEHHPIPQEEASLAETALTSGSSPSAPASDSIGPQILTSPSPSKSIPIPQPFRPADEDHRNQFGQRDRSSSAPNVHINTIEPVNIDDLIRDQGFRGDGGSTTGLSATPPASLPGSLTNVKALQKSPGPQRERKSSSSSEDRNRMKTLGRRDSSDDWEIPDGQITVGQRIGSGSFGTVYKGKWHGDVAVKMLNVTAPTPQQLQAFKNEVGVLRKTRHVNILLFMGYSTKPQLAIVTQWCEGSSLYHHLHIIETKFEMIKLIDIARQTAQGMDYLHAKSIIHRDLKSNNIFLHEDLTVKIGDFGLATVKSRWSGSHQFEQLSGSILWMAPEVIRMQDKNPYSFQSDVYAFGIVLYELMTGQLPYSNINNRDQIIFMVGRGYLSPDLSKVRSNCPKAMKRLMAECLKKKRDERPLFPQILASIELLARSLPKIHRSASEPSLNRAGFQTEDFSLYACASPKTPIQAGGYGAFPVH

For `COc1ccc(S(=O)(=O)NCCNc2nccc(-n3cnc4ccccc43)n2)cc1` [12f, N-(2-((4-(1H-benzo [d]imidazol-1-yl)pyrimidin-2-yl)amino)ethyl)-4-methoxy benzenesulfonamide], the IC50 in [1] was determined as 1.98 ± 0.12 µM. The activity at 10 µM amounted to 82.3% in [2]; 98.7% in [3]; 94% in [4]; 78.8% in experiment [5]; 89.2% in experiment [6]; 79.6% in experiment [7]. For the same compound, the activity at 10 µM worked out at 80.3% in experiment [8]; 75.4% in experiment [9]; 77.3% in experiment [10]; 97.5% in [11]; 80.6% in experiment [12]; 84.3% in [13]. Moreover, the activity at 10 µM in [14] was 103%; in experiment [15], 84.4%.

`O=S(=O)(NCCNc1nccc(-n2cnc3ccccc32)n1)c1ccccc1` [12a, N-(2-((4-(1H-benzo [d]imidazol-1-yl)pyrimidin-2-yl)amino)ethyl)benzenesulfonamide] returned a concentration for half-maximal inhibition (IC50) in experiment [1] of 3.25 ± 0.45 µM. The activity at 10 µM in experiment [2] was 75.4%; in [3], 104%; in experiment [4], 84.9%; in [5], 91.8%; in [6], 91.2%; in experiment [7], 83.7%. Further, the activity at 10 µM in [8] came out at 94.3%; in experiment [9], 73.3%; in experiment [10] it was 77%; in [11], 93.5%; in experiment [12] it was 84.6%; in experiment [13] it was 93.4%. For the same compound, the values for the activity at 10 µM in experiment [14] and in experiment [15] were 103% and 93.8%, respectively.

`O=S(=O)(NCCCNc1nccc(-n2cnc3ccccc32)n1)c1ccccc1` [12h, N-(3-((4-(1H-benzo [d]imidazol-1-yl)pyrimidin-2-yl)amino)propyl)benzenesulfonamide]: the IC50 in [1] was 2.32 ± 0.11 µM. Also, the activity at 10 µM in experiment [2] stood at 45.8%; in experiment [3] it was 86.2%; in experiment [4], 74.3%; in experiment [5], 89.7%; in experiment [6], 88.9%; in experiment [7], 87.4%. Further, the activity at 10 µM in experiment [8] stood at 68.8%; in experiment [9], 84.8%; in [10], 75.3%; in experiment [11] it was 89.2%; in experiment [12] it was 81%; in experiment [13] it was 74.5%. In addition, the results for the activity at 10 µM in experiment [14] and in [15] were 98.2% and 82.7%, respectively. Further, the percent inhibition in experiment [2] is given as 55%.

Compound `O=S(=O)(NCCCNc1nccc(-n2cnc3ccccc32)n1)c1cccc2ccccc12` [12n, N-(3-((4-(1H-benzo [d]imidazol-1-yl)pyrimidin-2-yl)amino)propyl)naphthalene-1-sulfonamide] showed an IC50 in experiment [1] of 3.54 ± 0.175 µM. For the same compound, the activity at 10 µM in experiment [2] was determined as 44.7%; in experiment [3], 81.1%; in [4] it was 69.7%; in [5], 87.2%; in experiment [6], 75.1%; in experiment [7] it was 60.5%. In addition, the activity at 10 µM in experiment [8] was determined as 76.2%; in [9], 80.2%; in experiment [10], 60.7%; in [11] it was 66.7%; in [12], 77.8%; in [13], 66.7%. Further, the activity at 10 µM in [14] worked out at 90.8%; in experiment [15], 70%. The percent inhibition in experiment [2] amounted to 56%.

(Values after article PMC8508980, “Design, Synthesis and Anticancer Profile of New 4-(1H-benzo[d]imidazol-1-yl)pyrimidin-2-amine-Linked Sulfonamide Derivatives with V600EBRAF Inhibitory Effect” (International Journal of Molecular Sciences, 2021).)
